Assay results reported in article PMC5515859, “Metabolism of F18, a Derivative of Calanolide A, in Human Liver Microsomes and Cytosol” (Frontiers in Pharmacology, 2017).
Read-outs that look alike come from different tables or passages of the source.

How the values were obtained:
CYP2C9 = details: cited from earlier work
[1] = tested on: carbonyl reductases in HLcy; experiment: Inhibition of carbonyl reduction of F18 (formation of M3-1 and M3-2) by chemical inhibitors in HLcy; format: in vitro ADME, human; details: F18 10 μM, 10 min
Description: F18 (10 μM) was incubated with HLMs (0.5 mg/mL) and the NADPH-generating system for 30 min or with HLcy and a cofactor (NADPH or NADH) for 10 min in the presence of chemical inhibitors under the above-described conditions. Control incubations using the vehicles but not the chemical inhibitors were also performed. The formation of M3-1 and M3-2 was quantified by LC-MS/MS.
The amounts of F18, M1, M2-9, M3-1, M3-2, M5-2, M5-3, M5-4, and M5-5 in the incubations were simultaneously quantified with the LC-MS/MS system. […] The sheath gas, auxiliary gas, spray voltage and tube lens parameters were the same as those for the metabolic profiling studies.

dog liver microsomes = experiment: Incubation of F18 with dog liver microsomes, metabolite profiling; format: in vitro ADME, beagle dog; parameters: key: +: Metabolite detected; −: metabolite not detected; details: F18 50 μM, 1 h
Description: (§1) A stock solution of F18 (5 mM) was prepared in methanol. F18 (50 μM) was incubated with RLMs/DLMs/MLMs/HLMs and HLcy (0.5 mg protein/mL) in 50 mM Tris-HCl buffer containing 5 mM MgCl2 (pH 7.4) in a final volume of 200 μL. The final concentration of methanol in the incubation system was 1% (v/v). After 3 min of preincubation at 37°C, the reactions were initiated by the addition of NADPH-regenerating system (10-mM β-NADP, 100-mM 6-G-P and 10-U/mL 6-G-P-DH) or NADH. After incubation for 1 h, the reactions were terminated by the addition of two volumes of ice-cold acetonitrile. Samples without NADPH or NADH were included as controls. The incubation mixture was vortexed and centrifuged at 13,300 × g for 5 min. A 10 μL aliquot of the supernatant was injected into an LC-tandem mass spectrometer (LC-MS/MS) for analysis.
(§2) Metabolic profiling studies were performed with a Finnigan TSQ Quantum MS instrument with an electrospray ionization probe and a Finnigan SURVEYOR HPLC system (Thermo Finnigan, San Jose, CA, USA). HPLC was performed with a Zorbax SB-C18 column (2.1 × 100 mm, 3.5 μm, Agilent Corporation, CA, USA) with a column temperature of 35°C and a flow rate of 200 μL/min. F18 and its metabolites were eluted using a linear gradient method with a mobile phase consisting of solvent A (water with 0.1% formic acid) and solvent B (acetonitrile with 0.1% formic acid). […] The samples were analyzed in the positive-ionization mode, and the TSQ capillary temperature was set to 350°C. Nitrogen was used as both the sheath gas and the auxiliary gas and was delivered at 30 psi and 15 psi, respectively. The spray voltage and tube lens were set to 3,800 V and 123 V, respectively. The full-width half maximum (FWHM) was set to 0.7. MS data were acquired in the selective ion-recording mode or by collecting full scans from 200 to 600 m/z at 1 scan/s. The mass spectrometer and HPLC system were operated using Xcalibur 2.0.7 software.

human liver cytosol = experiment: Incubation of F18 with human liver cytosol, metabolite profiling; format: in vitro ADME; parameters: key: +: Metabolite detected; −: metabolite not detected; details: F18 50 μM, 1 h
Description: as §1, §2

monkey liver microsomes = experiment: Incubation of F18 with monkey liver microsomes, metabolite profiling; format: in vitro ADME; parameters: key: +: Metabolite detected; −: metabolite not detected; details: F18 50 μM, 1 h
Description: as §1, §2

rat liver microsomes = experiment: Incubation of F18 with rat liver microsomes, metabolite profiling; format: in vitro ADME; parameters: key: +: Metabolite detected; −: metabolite not detected; details: F18 50 μM, 1 h
Description: as §1, §2

human liver microsomes = experiment: Incubation of F18 with human liver microsomes, metabolite profiling by LC-MS/MS; format: in vitro ADME; parameters: key: +: Metabolite detected; −: metabolite not detected; details: F18 50 μM, 1 h
Description: as §1, §2

CYP2B6 = details: cited from earlier work
CYP2C8 = tested on: CYP2C8; parameters: method as in FDA Drug Development and Drug Interactions; details: ref FDA Drug Development and Drug Interactions, cited from earlier work; for Ki: read-out: inhibitor Ki, CYP2C8
VSV-G/HIV-1 viruses = experiment: microbe, parasite or virus in culture; format: cell-based; details: Human immunodeficiency virus 1, HEK-293T, 48 h, read-out: IC50, inhibition of HIV-1 replication
[2] = HLcy with NADH, high concentration: dicumarol 50 μM, 4-methylpyrazole 500 μM
[3] = HLcy with NADH, low concentration: dicumarol 10 μM, 4-methylpyrazole 100 μM
[4] = HLcy with NADPH, high concentration: dicumarol 50 μM, 4-methylpyrazole 500 μM
[5] = HLcy with NADPH, low concentration: dicumarol 10 μM, 4-methylpyrazole 100 μM
[6] = read-out: inhibitor Ki, CYP2B6, ref FDA Drug Development and Drug Interactions
[7] = read-out: inhibitor Ki, CYP2C9, ref FDA Drug Development and Drug Interactions
[8] = HLcy, cofactor not given, high concentration 50 μM
[9] = HLcy, cofactor not given, low concentration 10 μM

## O=C(O)Cc1ccccc1Nc1c(Cl)cccc1Cl [Diclofenac]
CYP2C9
  Km: 3.4 to 52 µM

## O=c1oc2ccccc2c(O)c1Cc1c(O)c2ccccc2oc1=O [Dicumarol, dicumarol]
[1]; [2]
  Percentage of inhibition of the formation of M3-1, H: 51.5%
  Percentage of inhibition of the formation of M3-2, H: 49.6%
[1]; [3]
  Percentage of inhibition of the formation of M3-1, L: 16.0%
  Percentage of inhibition of the formation of M3-2, L: 6.7%
[1]; [4]
  Percentage of inhibition of the formation of M3-1, H: 70.6%
  Percentage of inhibition of the formation of M3-2, H: 82.2%
[1]; [5]
  Percentage of inhibition of the formation of M3-1, L: 52.3%
  Percentage of inhibition of the formation of M3-2, L: 67.7%

## CC(O)Cc1cc(=O)oc2c3c(c4c(c12)OC(C)(C)C=C4)OC(CCl)CC3=O (centres unmarked) [Metabolite M5-3]
Dog liver microsomes
  F18 metabolite detected in DLM: +
Human liver cytosol
  F18 metabolite detected in HLcy with NADH: −
  F18 metabolite detected in HLcy with NADPH: −
Monkey liver microsomes
  F18 metabolite detected in MLM: +
Rat liver microsomes
  F18 metabolite detected in RLM: +
Human liver microsomes
  F18 metabolite detected in HLM: +

## c1ccc(C2(N3CCCCC3)CCCCC2)cc1 [Phencyclidine]
CYP2B6; [6]
  Ki: 10 µM

## CCC(O)c1cc(=O)oc2c3c(c4c(c12)OC(C)(C)C=C4)OC(CCl)CC3=O (centres unmarked) [Metabolite M5-5]
Dog liver microsomes
  F18 metabolite detected in DLM: −
Human liver cytosol
  F18 metabolite detected in HLcy with NADH: −
  F18 metabolite detected in HLcy with NADPH: −
Monkey liver microsomes
  F18 metabolite detected in MLM: +
Rat liver microsomes
  F18 metabolite detected in RLM: +
Human liver microsomes
  F18 metabolite detected in HLM: +

## CNCCC(Oc1ccc(C(F)(F)F)cc1)c1ccccc1 (centres unmarked) [fluoxetine]
CYP2C9; [7]
  Ki: 18 to 41 µM

## Cc1cn[nH]c1 [4-methylpyrazole]
[1]; [2]
  Percentage of inhibition of the formation of M3-1, H: N.I.
  Percentage of inhibition of the formation of M3-2, H: N.I.
[1]; [3]
  Percentage of inhibition of the formation of M3-1, L: N.I.
  Percentage of inhibition of the formation of M3-2, L: N.I.
[1]; [4]
  Percentage of inhibition of the formation of M3-1, H: N.I.
  Percentage of inhibition of the formation of M3-2, H: N.I.
[1]; [5]
  Percentage of inhibition of the formation of M3-1, L: N.I.
  Percentage of inhibition of the formation of M3-2, L: N.I.

## CC(=O)O[C@H]1C(=O)[C@@]2(C)[C@H]([C@H](OC(=O)c3ccccc3)[C@]3(O)C[C@H](OC(=O)[C@H](O)[C@@H](NC(=O)c4ccccc4)c4ccccc4)C(C)=C1C3(C)C)[C@]1(OC(C)=O)CO[C@@H]1C[C@@H]2O [Taxol]
CYP2C8; Taxol 6-hydroxylation, N-DesethylAmodiaquine, read-out: substrate Km, CYP2C8
  Km: 5.4 to 19 µM

## CCC1(c2ccccc2)C(=O)NC(=O)NC1=O [Phenobarbital, phenobarbital]
[1]; [8]
  Percentage of inhibition of the formation of M3-1, H: N.I.
  Percentage of inhibition of the formation of M3-2, H: N.I.
[1]; [9]
  Percentage of inhibition of the formation of M3-1, L: N.I.
  Percentage of inhibition of the formation of M3-2, L: N.I.

## CC(NC(C)(C)C)C(=O)c1cccc(Cl)c1 (centres unmarked) [bupropion]
CYP2B6; read-out: substrate Km, CYP2B6, bupropion-hydroxylation, ref FDA Drug Development and Drug Interactions
  Km: 67 to 168 µM

## CCC(O)c1cc(=O)oc2c3c(c4c(c12)OC(C)(C)C=C4)OC(CCl)CC3=O (centres unmarked) [Metabolite M5-4]
Dog liver microsomes
  F18 metabolite detected in DLM: −
Human liver cytosol
  F18 metabolite detected in HLcy with NADH: −
  F18 metabolite detected in HLcy with NADPH: −
Monkey liver microsomes
  F18 metabolite detected in MLM: +
Rat liver microsomes
  F18 metabolite detected in RLM: +
Human liver microsomes
  F18 metabolite detected in HLM: +

## O=c1c(O)c(-c2ccc(O)c(O)c2)oc2cc(O)cc(O)c12 [Quercetin, quercetin]
[1]; [8]
  Percentage of inhibition of the formation of M3-1, H: 80.4%
  Percentage of inhibition of the formation of M3-2, H: 87.0%
[1]; [9]
  Percentage of inhibition of the formation of M3-1, L: 41.5%
  Percentage of inhibition of the formation of M3-2, L: 54.6%
CYP2C8
  Ki: […]

## CC1=CC(=O)c2ccccc2C1=O [Menadione, menadione]
[1]; [8]
  Percentage of inhibition of the formation of M3-1, H: 45.9%
  Percentage of inhibition of the formation of M3-2, H: 58.4%
[1]; [9]
  Percentage of inhibition of the formation of M3-1, L: 7.7%
  Percentage of inhibition of the formation of M3-2, L: 20.1%

## O=C(O)c1ccccc1Nc1cccc(C(F)(F)F)c1 [Flufenamic acid, flufenamic acid]
[1]; [8]
  Percentage of inhibition of the formation of M3-1, H: 87.9%
  Percentage of inhibition of the formation of M3-2, H: 94.0%
[1]; [9]
  Percentage of inhibition of the formation of M3-1, L: 82.4%
  Percentage of inhibition of the formation of M3-2, L: 88.5%

## CC=Cc1cc(=O)oc2c3c(c4c(c12)OC(C)(C)C=C4)OC(CCl)CC3=O (centres unmarked) [Metabolite M2-9]
Dog liver microsomes
  F18 metabolite detected in DLM: −
Human liver cytosol
  F18 metabolite detected in HLcy with NADH: −
  F18 metabolite detected in HLcy with NADPH: −
Monkey liver microsomes
  F18 metabolite detected in MLM: −
Rat liver microsomes
  F18 metabolite detected in RLM: +
Human liver microsomes
  F18 metabolite detected in HLM: +
VSV-G/HIV-1 viruses
  IC50: 0.11 µM

## CC(O)Cc1cc(=O)oc2c3c(c4c(c12)OC(C)(C)C=C4)OC(CCl)CC3=O (centres unmarked) [Metabolite M5-2]
Dog liver microsomes
  F18 metabolite detected in DLM: +
Human liver cytosol
  F18 metabolite detected in HLcy with NADH: −
  F18 metabolite detected in HLcy with NADPH: −
Monkey liver microsomes
  F18 metabolite detected in MLM: +
Rat liver microsomes
  F18 metabolite detected in RLM: +
Human liver microsomes
  F18 metabolite detected in HLM: +

## C[C@H](CCC(=O)O)[C@H]1CC[C@H]2[C@@H]3[C@H](O)C[C@@H]4C[C@H](O)CC[C@]4(C)[C@H]3CC[C@]12C [Chenodeoxycholic, chenodeoxycholic acid]
[1]; [8]
  Percentage of inhibition of the formation of M3-1, H: 69.3%
  Percentage of inhibition of the formation of M3-2, H: 81.2%
[1]; [9]
  Percentage of inhibition of the formation of M3-1, L: 50.8%
  Percentage of inhibition of the formation of M3-2, L: 62.3%

## CCc1ccc(CCOc2ccc(CC3SC(=O)NC3=O)cc2)nc1 (centres unmarked) [pioglitazone]
CYP2C8
  Ki: 1.7 µM

## OC(Cn1cncn1)(Cn1cncn1)c1ccc(F)cc1F [Fluconazole]
CYP2C9; [7]
  Ki: 7 µM

## medroxyprogesterone
[1]; [8]
  Percentage of inhibition of the formation of M3-1, H: 24.9%
  Percentage of inhibition of the formation of M3-2, H: 38.8%
[1]; [9]
  Percentage of inhibition of the formation of M3-1, L: 24.3%
  Percentage of inhibition of the formation of M3-2, L: 35.8%

## COc1cc(Cc2cnc(N)nc2N)cc(OC)c1OC [Trimethoprim]
CYP2C8
  Ki: 32 µM

## COC(=O)[C@H](c1ccccc1Cl)N1CCc2sccc2C1 [Clopidogrel]
CYP2B6
  Ki: 0.5 µM
